Key:
[1] = Pharmacokinetics of TAK-063 in plasma after single oral dose; assay type: in vivo, human
From the text: (§1) The Statistics Department at Takeda Development Center Americas, Inc., generated a randomization schedule before the start of the study, and this randomization schedule maintained the investigational drug blind. During randomization, subjects were assigned a four-digit randomization sequence that encoded assignment of subjects to the treatment schedule. Subjects were randomized to one of nine treatment schedules and received placebo + ketamine (regimen A) and two of the following three treatment regimens: 3 mg of TAK-063 + ketamine (regimen B), 30 mg of TAK-063 + ketamine (regimen C), and 300 mg of TAK-063 + ketamine (regimen D). […] Treatment sequences are presented in Online Resource Supplementary Table S1. The study consisted of multiple visits with a different treatment protocol on each visit. The visits were standardized and included a screening period (day − 28 to day − 2), check-in (day − 1), a treatment period (days 1), completion of treatment visit (day 2), and a follow-up visit (day 14 ± 3 days after last TAK-063 dose). After each treatment period, subjects stayed overnight at the study site for observation and were discharged on day 2. Each participant completed the study when they completed the follow-up visit after their last treatment2.
Subjects checked in on day − 1 of each treatment period during which vital signs, electrocardiogram (ECG), and laboratory safety tests were repeated. On day 1 of each treatment period, subjects received a 3-, 10-, or 30-mg TAK-063 dose or placebo tablets. Participants then relaxed, slept, or watched movies while remaining in the research environment. Ketamine (0.12 mg/kg intravenous bolus over 60 s followed by a continuous infusion of 0.31 mg/kg/h over approximately 150 min) was administered 4 h after TAK-063 or placebo (Fig. 1). This ketamine dose was based on a previous study that achieved steady-state concentrations of 75 ng/mL and provided a robust BOLD signal with minimal psychotomimetic symptoms (De Simoni et al. [2013]). […]
Blood samples were collected for the determination of TAK-063 and ketamine concentrations, and ketamine concentrations were used to verify intravenous delivery of ketamine. Blood samples for determination of TAK-063 concentration were collected at pre-dose and at 0.5, 2, 3, 4.5, 6, 8, 10, 12, and 24 h post dose. Blood samples for determination of ketamine concentration were collected at 0.5, 1, 2, and 2.5 h after administration of ketamine. The target ketamine concentration was established at 75 ng/mL. PK samples were not collected from the arm in which ketamine was administered.
This study was not powered for any comparison, and the number of subjects was considered to be suitable for fulfilling study objectives. All statistical tests were two-tailed at α = 0.05 level of significance. For the analysis of the neuroimaging battery test results, effect sizes of > 0.3 were considered potentially meaningful, even without power to detect statistical significance. PK parameters of TAK-063 were generated using WinNonlin Version 6.3. fMRI images were analyzed using SPM8 and Matlab. Percent signal change for resting state data was calculated between pre-ketamine and post-ketamine infusion based on a priori ROIs using SPM’s Anatomy Toolbox (Yurgelun-Todd et al. [2016]). Percent signal change for the working memory task was calculated for the task versus baseline in the post-ketamine condition using the same ROI used for resting state (Yurgelun-Todd et al. [2016]). An analysis of variance (ANOVA) model was used to perform the analyses for BOLD signal changes (Yurgelun-Todd et al. [2016]). Cohen’s d effect sizes were calculated as d=μt^−μp^/sp where d is the effect size and μt^ and μp^ are the least-square means for a TAK-063 dose and placebo regimen, respectively, from the ANOVA model. sp is the pooled standard deviation from both regimens. No adjustments were made for multiple comparisons.

[2] = system: healthy male subjects; test: Safety assessments (adverse events, laboratory tests, ECG, vital signs); assay type: in vivo, human
From the text: as §1
AEs, clinical laboratory results, ECG, vital signs, and suicide assessments were recorded after administration of TAK-063 and throughout the remainder of the study. Intensity of AEs was classified as mild, moderate, and severe, and each AE was assessed for association with study drug. AEs were assessed throughout the 2-day study visit, at the three treatment visits, at the study exit, and at the follow-up visit. ECG, vital signs, and clinical laboratory results were assessed at visit 1 during screening, day − 1, day 1 of each treatment period, day 2 of period 3 (study exit), the early termination visit, and the follow-up visit.
In this study, the safety set, used for demographic and safety evaluations, included subjects who receive at least one dose of study medication. The PK set included all subjects in the safety set with at least one available drug concentration measurement. The PD set included all subjects in the safety set and with at least one valid PD assessment.

[3] = system: rodent models of cognitive impairment; set-up: method as in Shiraishi et al. [2016]; settings: ref Shiraishi et al. [2016]; cited from earlier work
[4] = system: phosphodiesterase 10A (PDE10A); set-up: method as in Seeger et al. [2003]; Suzuki et al. [2015]; settings: ref Seeger et al. [2003]; Suzuki et al. [2015]; cited from earlier work
[5] = all 27 subjects, TAK-063 or placebo followed by ketamine
[6] = all subjects, most frequently reported AEs

COc1cn(-c2ccc(-n3cccn3)cc2F)nc(-c2ccnn2-c2ccccc2)c1=O [TAK-063]
AUC24 ([1]; 3 mg single oral dose): 111.3 ng·h/mL
Average concentration (Cav) ([1]; 3 mg single oral dose): 4.63 ng/mL
AUC24 ([1]; 10 mg single oral dose): 549.2 ng·h/mL
Average concentration (Cav) ([1]; 10 mg single oral dose): 22.9 ng/mL
AUC24 ([1]; 30 mg single oral dose): 1296.3 ng·h/mL
Average concentration (Cav) ([1]; 30 mg single oral dose): 53.9 ng/mL
rate of absorption ([1]; oral administration): moderate
Decline of plasma concentrations after Cmax ([1]; single oral dose): declined in a biphasic manner
EPS-type AE in one subject ([2]; 30 mg): restlessness
EPS-type AE in one subject ([2]; 300 mg): muscle tightness and restlessness
discontinuation because of EPS ([2]; 300 mg): One subject
tolerability of the 300-mg dose ([2]; 300 mg, led to change of dose to 10 mg): higher than expected rates of dystonia and nausea
subjects with AEs consistent with extrapyramidal symptoms (EPS) ([2]; TAK-063 group overall): 8.0%
subjects with AEs consistent with extrapyramidal symptoms (EPS) (number) ([2]; TAK-063 group overall): two
subjects who experienced AEs related to the study drug [2, 5]: 88.9%
subjects who experienced AEs related to the study drug (number) [2, 5]: 24 subjects
severity of drug-related AEs ([2]; all subjects): mild to moderate
fatigue [2, 6]: 25.9%
nausea [2, 6]: 40.7%
somnolence [2, 6]: 40.7%
vomiting [2, 6]: 63.0%
clinically significant changes from baseline in vital signs, clinical laboratory tests and 12-lead ECGs ([2]; baseline to post dose): No changes
deaths or serious AEs ([2]; during the study): No deaths or serious AEs
participants discontinuing study drug because of AEs ([2]; in vivo): one
overall safety and tolerability ([2]; single oral doses with ketamine): safe and well tolerated
MK-801 and phencyclidine-induced effects on spatial working memory, attentional set-shifting, and executive function [3]: reversed
PDE10A inhibition [4]: selective inhibitor
